Structures can show the parent of a compound that is named as a salt.
Tests used:
[1] = Accelerated ageing at 84° C.: effect of additives on thiocarbonate half-life; type: physicochemical; conditions: parentheses = decrease
Method: The effect of elemental sulfur additions and the addition of free radical scavengers on the half-life of thiocarbonate solutions was determined by an accelerated adding procedure in which the compositions were stored at 84° C. in order to accelerate decomposition and thereby facilitate data acquisition. Incremental additions of 1.0, 3.0 and 5.0 weight percent elemental sulfur were made, and these corresponds to 0.16, 0.48 and 0.86 equivalents of sulfur per equivalent of ammonium sulfide, respectively. Since the solutions contained 1 equivalent of ammonium sulfide per equivalent of ammonium tetrathiocarbonate (based on the weight percent values for those components given above), the amount of ammonium polysulfide in the solution correspond, nominally, to 0.16, 0.48 and 0.86 equivalents polysulfide per equivalent of thiocarbonate for the 3 sulfur concentrations employed.

[2] = Effect of pH on production of CS2 from thiocarbonates in citrate-phosphate buffers (gas chromatography of air); type: physicochemical
Method: Pure carbon disulfide was also injected, for comparison. A syringe was used to periodically sample air in the bottle, and the air was analyzed by gas chromotography.

Fusarium oxysporum = test: Fungicidal test, radial growth of mycelia from treated agar blocks; type: cell-based
Method: (§1) Thiocarbonate solutions were used in a test of their fungicidal properties. Cultures of four plant pathogenic fungi were grown upon potato dextrose agar at room temperature, in diffuse natural lighting. After one week, square blocks having 2 millimeter sides were cut from the edges of actively drawings mycelia spots on the agar.
(§2) The blocks were immersed in sterile deionized water, as a control, or in dilutions of thiocarbonate solutions using the sterile water, in a closed container. Subsequently, the blocks were removed and placed upon agar in clean plates, and mycelia were allowed to grow for one week.
(§3) Radial growth of mycelia colonies was measured for each of the six to eight replicate plates used for a particular fungus, and average colony radius was calculated. Percent control is defined by the following equation: […]
(§4) Concentrations given for solutions used to treat the agar blocks are expressed in grams of thiocarbonate solution per liter of diluted solution.

Phytophthora cinnamomi = test: as above; type: cell-based
Method: as §1, §2, §3, §4

Sclerotium rolfsii = test: as above; type: cell-based
Method: as §1, §2, §3, §4

Verticillium dahliae = test: as above; type: cell-based
Method: as §1, §2, §3, §4

[3] = system: sugar beet cyst nematodes (Heterodera spp.); test: Soil treatment of infested sugar beets; type: in vivo; conditions: about 94 kilograms per hectare, dissolved in irrigation water
Method: Sugar beets, infested with sugar beet cyst nematodes (Heterodera spp.), were treated by application to the soil of about 94 kilograms per hectare of CaCS₄, dissolved in irrigation water.

Fusarium spp. = test: Petri dish tests in potato dextrose agar and broth; type: cell-based; conditions: when the broth also contained Trichoderma spp., read-out: solution concentration with which control was obtained
Description: In petri dish tests of CaCS₄ against the fungus Fusarium spp., control with solutions containing less than about 10 grams per liter of the compound, in both potato dextrose agar and potato dextrose broth, was obtained using the solution when the broth also contained another fungus, Trichoderma spp.

[4] = Degradation time in sandy loam soil at different moisture (CS2 in air space by gas chromatography); type: physicochemical
Method: A sandy loam soil was placed in 1-liter glass bottles, fitted with stoppers having fluorocarbon liners and silicone rubber septa, to give a soil depth of about 4 cm. Water was added to the soil, in quantities to obtain 50 and 100 percent soil saturation. Thiocarbonate solution or carbon disulfide was then injected near the bottom of the soil layer, the bottles were promptly sealed, and the air space in the bottles was sampled at intervals with a syringe, for gas chromatographic analysis of CS₂. The results are summarized below, wherein degradation time is the number of hours required to achieve the maximum CS₂ concentration in the air space.

[5] = system: nitrification of ammoniacal fertilizers in soil; test: Inhibition of nitrification of urea in sandy loam soil plots; conditions: 5 weight percent solution at 100 liters per acre after 200 lbs. urea per acre; versus untreated plot
Description: The ability of the described thiocarbonate compounds to inhibit nitrification of ammoniacal fertilizers in soil can be illustrated by applying to two separate plots of sandy loam soil a urea solution in irrigation water at a rate corresponding to 200 lbs. urea per acre with sufficient water to increase the soil water content to at least 50 percent. This application can be followed, on one of the plots treated with the urea solution and within one hour of application of the urea solution, with application of an aqueous solution containing 5 weight percent calcium tetrathiocarbonate applied at a rate of 100 liters per acre in sufficient irrigation water to increase the soil water content to 100 percent of saturation.

[6] = Solvency of aqueous thiocarbonate solutions for urea; type: physicochemical
Method: Urea was added to a 41.5 percent, by weight, aqueous solution of calcium tetrathiocarbonate until the solubility limit of urea was reached. At room temperature, the solution dissolved 122 percent by weight urea. The resulting solution was 55 percent urea, 18.6 percent calcium tetrathiocarbonate, and 26.3 percent water, by weight. Thus, the solvency of the aqueous solution of calcium tetrathiocarbonate for urea was at least as great as that of water alone. Similarly, a 46 percent solution of potassium tetrathiocarbonate dissolved 100 percent of its own weight of urea. Similar results were obtained with other tri- and tetrathiocarbonates of alkali metal and alkaline earth metals.

[7] = additive Concentration 0.5 Wt. %
[8] = additive Concentration 1.0 Wt. %
[9] = additive Concentration 2.0 Wt. %
[10] = 1 g/l, listed as CaCS₄ (2.8%CS₂)
[11] = 10 g/l, listed as CaCS₄ (2.8%CS₂)
[12] = 1 g/l, listed as K₂CS₄ (9.43%CS₂)
[13] = 10 g/l, listed as K₂CS₄ (9.43%CS₂)

O=C1O[C@H]([C@@H](O)CO)C(O)=C1O [Ascorbic Acid]
Increase (Decrease) in Half-Life, % [1, 7]: 0%
Increase (Decrease) in Half-Life, % [1, 8]: 0%
Increase (Decrease) in Half-Life, % [1, 9]: 0%

S=C(S)SS [CaCS₄, calcium tetrathiocarbonate]
Half-life (minutes) for production of carbon disulfide ([2]; pH 5.2, 125 milligrams of thiocarbonate ion per liter): 1 min
Half-life (minutes) for production of carbon disulfide ([2]; pH 6.0): 1.8 min
Half-life (minutes) for production of carbon disulfide ([2]; pH 7.0): 2.7 min
Half-life (minutes) for production of carbon disulfide ([2]; pH 8.0, CaCS4 values above pH 7 called unreliable): 8.0 min
Percent Control Fusarium oxysporum (Fusarium oxysporum; [10]): 3%
Percent Control Fusarium oxysporum (Fusarium oxysporum; [11]): 18%
Percent Control Fusarium oxysporum (Fusarium oxysporum; 100 g/l thiocarbonate solution per liter of diluted solution, listed as CaCS₄ (2.8%CS₂)): 100%
Percent Control Phytophthora cinnamomi (Phytophthora cinnamomi; [10]): 56%
Percent Control Phytophthora cinnamomi (Phytophthora cinnamomi; [11]): 56%
Percent Control Sclerotium rolfsii (Sclerotium rolfsii; [10]): 46%
Percent Control Sclerotium rolfsii (Sclerotium rolfsii; [11]): 62%
Percent Control Verticillium dahliae (Verticillium dahliae; [10]): 13%
Percent Control Verticillium dahliae (Verticillium dahliae; [11]): 22%
counts and viability of nematode larvae in the soil following treatment [3]: remained high, but the larvae were not viable
minimal effective concentration (Fusarium spp.): < 10000 µg/mL
Degradation Time ([4]; Soil Moisture 0 % of Saturation, hours to maximum CS2 concentration in the air space): 4 h
nitrification of urea in the treated soil [5]: nitrified more slowly
urea dissolved by the solution ([6]; 41.5 percent by weight aqueous solution, room temperature): 122 percent by weight

O=C(O)CC(O)(CC(=O)O)C(=O)O [Citric Acid, Na Salt]
Increase (Decrease) in Half-Life, % [1, 7]: 0%
Increase (Decrease) in Half-Life, % [1, 8]: 0%
Increase (Decrease) in Half-Life, % [1, 9]: 0%

Oc1ccc(O)cc1 [Hydroquinone]
Increase (Decrease) in Half-Life, % [1, 7]: 0%

S=C(S)SS [K₂CS₄, potassium tetrathiocarbonate]
Percent Control Fusarium oxysporum (Fusarium oxysporum; [12]): 8%
Percent Control Fusarium oxysporum (Fusarium oxysporum; [13]): 10%
Percent Control Fusarium oxysporum (Fusarium oxysporum; 100 g/l thiocarbonate solution per liter of diluted solution, listed as K₂CS₄ (9.43%CS₂)): 76%
Percent Control Phytophthora cinnamomi (Phytophthora cinnamomi; [12]): 56%
Percent Control Phytophthora cinnamomi (Phytophthora cinnamomi; [13]): 68%
Percent Control Sclerotium rolfsii (Sclerotium rolfsii; [12]): 42%
Percent Control Sclerotium rolfsii (Sclerotium rolfsii; [13]): 8%
Percent Control Verticillium dahliae (Verticillium dahliae; [12]): 27%
Percent Control Verticillium dahliae (Verticillium dahliae; [13]): 15%
Degradation Time ([4]; Soil Moisture 50 % of Saturation): 5 h
Degradation Time ([4]; Soil Moisture 100 % of Saturation): 48 h
urea dissolved by the solution ([6]; 46 percent solution): 100% of its own weight

From patent EP0366226A1, “Stabilized thiocarbonate solutions and the use thereof for controlling soil pests” (UNION OIL COMPANY OF CALIFORNIA, priority 1988, dated 1990)
